Measured values reported in patent publication EP3366310A1, “L-ARABINOSE AND USES THEREOF AGAINST VIBRIO GENUS BACTERIA” (priority 2017, dated 2018).

Tests used:
V. cholerae N16961 [1] = test: Microscopy inspection of cell morphology (spherical cells) after exposure to carbon sources; assay type: cell-based, Vibrio cholerae
Description: Cells were grown to exponential phase and spread on a 1% (w/v) agar pad (ultrapure agarose, Invitrogen) for analysis. For snapshot analyses, cells images were acquired using a DM6000-B (Leica) microscope. For time-lapse analyses the agarose pad was made using M9-MM and images were acquired using an Evolve 512 EMCCD camera (Roper Scientific) attached to an Axio Observe spinning disk (Zeiss).
(§1) During experiments in which inventors used an arabinose-inducible promoter to express fluorescently tagged proteins in V. cholerae, they occasionally observed the presence of spherical cells. […]. To better understand this phenotype, inventors grew V. cholerae cells to exponential phase in different liquid media and added increasing concentrations of L-Ara. After a few hours, they inspected the cells morphology at the microscope. […] To see the effect of L-Ara on cell proliferation and growth, overnight cultures were diluted into fresh media containing increasing amounts of the inducer. The OD of these cultures was monitored over time (Figure 2). […].

V. cholerae N16961 [2] = test: Growth curves (optical density at 600 nm over time); assay type: cell-based, Vibrio cholerae; conditions: for effect on V. cholerae growth or morphology: M9-MM, 0.2% of carbon source (Table 1 and Figure 5)
Description: Cells were grown at 30°C in M9 minimal medium supplemented with 0.2% fructose and 1 µg/ml thiamine (M9-MM) and M9-MM + 0.1% casamino acids (M9-MM + CAA) in a 96-well microtiter plate and the optical density at 600 nm followed over time in a Tecan plate reader. The growth curves plotted are the average of three replicates; the standard deviation is represented for each time point.
as §1

[3] = test system: EPV50 (derived from El Tor isolate N16961); test: microbe, parasite or virus in culture; assay type: cell-based; conditions: Vibrio cholerae
Description: An EPV50 (derived from El Tor isolate N16961) overnight culture was diluted 200 times in M9-MM, followed by 2 hours of growth at 30°C before 0.2% L-Ara was added and growth continued for other 5 hours. Cells were checked for complete transition to spherical morphology at the microscope. Serial dilutions of t0 (before L-Ara addition) and t1 (after L-Ara treatment) samples were plated on Luria Bertani (LB) agarose plates and the number of colonies used to calculate the CFU at t0 and t1. The ratio CFU t1 / CFU t0 is used to calculate the percentage of cells able to survive L-Ara treatment and revert to proliferating cells.

EPV50 = test: Muropeptide analysis (peptidoglycan isolation and UPLC); assay type: cell-based, Vibrio cholerae
Description: EPV50 overnight cultures were diluted 200 times in M9-MM and grown at 30°C. 100 ml were centrifuged after 7 hours of growth and 1L of culture to which 0.2% L-Ara was added after 2 hours was harvested after further 5 hours of incubation. Cells were checked for complete transition to spherical morphology at the microscope. Previously described methods were followed for muropeptide isolation and ultra-performance liquid chromatography (UPLC) analysis [Desmarais et al. and Möll et al.]. After boiling for 2 hours cell pellets with SDS (sodium dodecyl sulfate) the lysates were left stirring over night at room temperature. Cell wall material was pelleted, washed with MQ water to remove the SDS, and digested with pronase E to remove Braun's lipoprotein. Purified peptidoglycan was re-suspended in MQ water and treated overnight with muramidase at 37°C. Soluble muropeptides were reduced with sodium borohydride and the pH then adjusted to 3.5 with phosphoric acid. Samples were injected in an ultra-performance liquid chromatography (UPLC) system to obtain the muropeptide profiles. UPLC separation was performed on a Waters UPLC system equipped with an ACQUITY UPLC BEH C18 Column, 130 Å, 1.7 µm, 2.1 mm × 150 mm (Waters) and a dual wavelength absorbance detector using a linear gradient from buffer A (phosphate buffer 50 mM, pH 4.35) to buffer B (phosphate buffer 50 mM, pH 4.95, methanol 15% (vol/vol)) in a 22-min run with a 0.25 mL/min flow. Elution of muropeptides was detected at 204 nm. Identity of the peaks was assigned by comparison of the retention times and profiles to other chromatograms in which mass spectrometry data has been collected. The relative amounts of the muropeptides and the percentage of cross-linkage were calculated as described by Glauner et al. To calculate the amount of peptidoglycan per cell, the total area of the muropeptides was normalized to the OD of the culture. All values are the means of three independent experiments.

[4] = M9-MM supplemented with casamino acids (CAA)
[5] = muropeptide group, M9-MM, 0.2% L-Ara for 5 hours

Structure (SMILES) | L-Ara concentration at which all cells exhibited the spherical phenotype (V. cholerae N16961 [1]; [4]) [%] | L-Ara concentration at which spherical cells started to appear (V. cholerae N16961 [1]; [4]) [%] | cell morphology (V. cholerae N16961 [1]; M9-MM, 0.02% L-Ara, a few hours) | cell shape (V. cholerae N16961 [1]; M9-MM, 0.1% L-Ara (Figure 1A)) | L-Ara concentration at which cells became completely round (V. cholerae N16961 [1]; M9-MM, a few hours) [%] | L-Ara concentration that triggers a toxic response (stop of proliferation, loss of rod-shape) (V. cholerae N16961 [1]; Vibrio cholerae, summary statement) [%] | effect on cell growth (OD) (V. cholerae N16961 [2]; M9-MM and M9-MM+CAA, increasing amounts of L-Ara) | effect on V. cholerae growth or morphology (V. cholerae N16961 [2]) | killing at 0.2 % ([3]; 5 h, read-out: cell death) [%] | viability at 0.2 % ([3]; M9-MM, 0.2% L-Ara for 5 hours, ratio CFU t1 / CFU t0, read-out: percentage of survival to L-Ara treatment) [%] | Anhydro-muropeptides (%) (EPV50; [5]) | DAP-DAP cross-linked muropeptides (%) (EPV50; [5]) | Dimers (%) (EPV50; [5]) | Trimers (%) (EPV50; [5]) | Monomers (%) (EPV50; muropeptide group, M9-MM, 0.2% L-Ara for 5 hours, mean of three experiments (±SD)) | Average glycan chain length (EPV50; peptidoglycan feature, calculated from the number of anhydro-muropeptides, M9-MM, 0.2% L-Ara for 5 hours) | Total cross-linkage (%) (EPV50; peptidoglycan feature, M9-MM, 0.2% L-Ara for 5 hours) | amount of peptidoglycan per cell, times lower than in rod-shaped (non-treated) cells (EPV50; spherical L-Ara-treated bacteria, 0.2% L-Ara) | glycan chains, times shorter than in non-treated cells (EPV50; spherical L-Ara-treated cells, 0.2% L-Ara)
O=C[C@H](O)[C@@H](O)[C@@H](O)CO [L-Arabinose] | 0.5 | 0.2 | normal rod-shape | spherical shape with a heterogeneous diameter size | 0.1 | 0.02 | arrested V. cholerae cell growth | deleterious effects on cell growth or cell morphology | ~50 | ~50 | 21.9 (±3.7) % | 7.5 (±0.9) % | 47.2 (±3.1) % | 12.6 (±4.8) % | 40.2 (±3.2) % | 7.5 (±1.1) | 47.2 (±5.0) % | around 10 times | around 2 times
O=C[C@@H](O)[C@H](O)[C@H](O)CO [D-Arabinose, reference compound] |  |  |  |  |  |  |  | none of them, including D-Arabinose, affected V. cholerae growth or morphology |  |  |  |  |  |  |  |  |  |  | 
